From article PMC7213978, “The dynamic interplay of host and viral enzymes in type III CRISPR-mediated cyclic nucleotide signalling” (eLife, 2020)

Legend:
Crn1 (Sso2081) = target: T1, Crn1 (Sso2081) (Saccharolobus solfataricus, UniProt Q7LYJ6); test: native gel electrophoretic mobility shift; format: binding; details: read-out: apparent KD
T1 construct: recombinant from plasmid expression construct; homodimer
T1 sequence (Q7LYJ6 1-178): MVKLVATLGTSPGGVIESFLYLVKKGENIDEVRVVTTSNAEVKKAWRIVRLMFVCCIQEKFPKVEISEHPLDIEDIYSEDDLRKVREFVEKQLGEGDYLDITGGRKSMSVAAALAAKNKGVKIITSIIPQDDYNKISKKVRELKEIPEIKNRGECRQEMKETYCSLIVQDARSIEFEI

Csx1 = target: T2, Csx1 (Saccharolobus solfataricus, UniProt Q97YD5); test: native gel electrophoretic mobility shift, quadratic fit; format: binding
T2 construct: recombinant from plasmid expression construct; homodimer
T2 sequence (Q97YD5 1-377): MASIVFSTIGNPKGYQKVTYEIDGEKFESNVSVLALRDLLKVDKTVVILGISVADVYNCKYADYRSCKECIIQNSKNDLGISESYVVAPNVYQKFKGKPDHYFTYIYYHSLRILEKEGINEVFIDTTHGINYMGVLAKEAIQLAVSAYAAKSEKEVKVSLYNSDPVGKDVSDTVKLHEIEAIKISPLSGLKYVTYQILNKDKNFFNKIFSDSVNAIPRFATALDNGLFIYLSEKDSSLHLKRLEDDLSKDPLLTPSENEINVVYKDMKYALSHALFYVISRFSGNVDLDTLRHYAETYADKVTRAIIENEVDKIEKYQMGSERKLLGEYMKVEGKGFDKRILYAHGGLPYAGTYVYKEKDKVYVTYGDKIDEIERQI

## Nc1ncnc2c1ncn2[C@@H]1O[C@@H]2COP(=O)(O)O[C@H]3[C@@H](O)[C@H](n4cnc5c(N)ncnc54)O[C@@H]3COP(=O)(O)O[C@H]3[C@@H](O)[C@H](n4cnc5c(N)ncnc54)O[C@@H]3COP(=O)(O)O[C@H]3[C@@H](O)[C@H](n4cnc5c(N)ncnc54)O[C@@H]3COP(=O)(O)O[C@H]2[C@H]1O [cA4, cyclic tetra-adenylate]
Crn1 (Sso2081)
  Kd: ~50 nM
Csx1
  Kd: 130 ± 20 nM
